# Measured values as given in patent publication US7838495B2, “Compositions and methods of use of EPB1, and ErbB3 binding protein” (University of Maryland, Baltimore, priority 2007, dated 2010).
# Assays:
# [1] = tested on: AR regulated MMTV promoter; assay: MMTV-luciferase reporter response to R1881 in A16 and C13 cells; assay type: cell-based, human; conditions: EBP1 knock out cells vs A16, R1881 10^-8 M, p<0.05
# Experimental: FIG. 7A-C. Suppression of EBP1 by shRNA promotes a hormone refractory phenotype A. Western blot analysis of Ebp1. Lysates of LNCaP cells stably transduced with a control lentivirus (A16) or an EBP1 targeted shRNA (13C) were collected and resolved by SDS-PAGE. Western blots were probed for endogenous EBP1 or ACTIN as indicated. B. Inhibition of EBP1 expression abrogates the ability of HRG to arrest growth (Left panel) Control and shRNA EBP1 targeted cells were plated in complete media at […] for one day. The next day, cells were switched to steroid reduced-media and HRG added at the indicated concentrations. Total cell numbers were determined seven days later by MTT assay. Each point represents mean±S.E. of 6 wells. Data is representative of three experiments. (Right Panel) AKT phosphorylation in EBP1 knock out cells Control (A16) or EBP 1 knock out cells (C13) were treated with HRG (20 ng/ml) for 15 mm and cell lysates assessed for the presence of phospho and total AKT as indicated. C. […] Sixteen hours later, luciferase activity was measured. […] Lysates of logarithmically growing A16 and C13 cells were resolved by SDS-PAGE and analyzed by Western blotting using antibodies to AGR2 and ACTIN as indicated. […] The viability of the cells was determined by MTT assays 5 days later. […]
# AR = AR (Homo sapiens, UniProt P10275, T878A)
# Chain of AR (P10275 whole entry T878A): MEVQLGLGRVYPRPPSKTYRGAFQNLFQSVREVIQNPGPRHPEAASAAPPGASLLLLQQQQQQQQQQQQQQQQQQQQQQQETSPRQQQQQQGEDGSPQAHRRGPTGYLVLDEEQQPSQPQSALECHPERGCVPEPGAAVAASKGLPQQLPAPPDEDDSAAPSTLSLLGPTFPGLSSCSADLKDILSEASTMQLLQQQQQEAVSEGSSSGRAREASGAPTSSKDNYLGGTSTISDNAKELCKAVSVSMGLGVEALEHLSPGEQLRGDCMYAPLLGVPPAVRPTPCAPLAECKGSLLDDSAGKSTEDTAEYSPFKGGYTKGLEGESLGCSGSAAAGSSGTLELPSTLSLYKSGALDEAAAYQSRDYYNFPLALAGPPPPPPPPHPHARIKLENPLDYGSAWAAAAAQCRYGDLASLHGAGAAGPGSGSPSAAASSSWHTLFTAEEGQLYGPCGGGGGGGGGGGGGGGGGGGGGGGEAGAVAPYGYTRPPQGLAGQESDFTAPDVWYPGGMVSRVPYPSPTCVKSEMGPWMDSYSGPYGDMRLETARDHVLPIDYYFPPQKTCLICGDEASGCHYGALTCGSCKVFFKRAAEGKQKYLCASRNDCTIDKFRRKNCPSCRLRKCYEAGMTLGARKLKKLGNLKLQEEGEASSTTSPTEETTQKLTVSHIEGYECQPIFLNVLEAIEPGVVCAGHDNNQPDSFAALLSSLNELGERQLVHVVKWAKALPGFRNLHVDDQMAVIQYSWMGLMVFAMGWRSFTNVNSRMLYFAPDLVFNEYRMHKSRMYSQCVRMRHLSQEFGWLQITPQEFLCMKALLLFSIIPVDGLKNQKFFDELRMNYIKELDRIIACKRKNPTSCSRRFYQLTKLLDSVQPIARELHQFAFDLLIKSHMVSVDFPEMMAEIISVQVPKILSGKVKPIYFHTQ
# Experimental: Luciferase Reporter Assays: Vector control or EBP1-transfected LNCaP (5×10^4) cells were plated in twelve-well plates in complete media. When cells reached 50-60% confluence, they were transfected with 0.5 μg of MMTV-luc using the Fugene-6 reagent (Roche). Cells were also transfected with the RL-TK vector as an internal control. […] Luciferase activity was determined as previously described using a Dual-Luciferase kit (Promega, Madison, Wis.). The activities of renilla luciferase were used to normalize any variations in transfection efficiency. The promoter activities of each plasmid construct were calculated as the firefly-renilla luciferase activity ratios. All transfection experiments were carried out in triplicate wells and repeated three times.
smiles,measurement,setting,value
C[C@]1(O)CC[C@H]2[C@@H]3CCC4=CC(=O)CCC4=C3C=C[C@@]21C [R1881],transcriptional response of AR regulated MMTV promoter to R1881,[1],enhanced
same,AR activation (MMTV-luc),AR; LNCaP EPB1 transfectants,neither R1881 nor cyproterone acetate nor the combination thereof stimulated AR activation
same,activation of MMTV-luc luciferase activity,"AR; LNCaP vector controls, 10^-8 M",20 fold
